Measured values published in patent US5945421A, “Dopamine D4 receptor antagonists” (Warner-Lambert Company, priority 1997, dated 1999).
Read-outs that look alike come from different tables or passages of the source.

Legend:
[1] = molecular target: T1, human recombinant dopamine D4.2 receptor (Homo sapiens, UniProt P21917, DEL265-296); test: Receptor binding assay, D4.2 dopamine receptor ([3H]spiperone competition, CHO K1 cell membranes)
T1 construct: expressed in transfected cells; host or cells: CHO K1
T1 sequence (P21917 with tags, fused parts or gaps DEL265-296): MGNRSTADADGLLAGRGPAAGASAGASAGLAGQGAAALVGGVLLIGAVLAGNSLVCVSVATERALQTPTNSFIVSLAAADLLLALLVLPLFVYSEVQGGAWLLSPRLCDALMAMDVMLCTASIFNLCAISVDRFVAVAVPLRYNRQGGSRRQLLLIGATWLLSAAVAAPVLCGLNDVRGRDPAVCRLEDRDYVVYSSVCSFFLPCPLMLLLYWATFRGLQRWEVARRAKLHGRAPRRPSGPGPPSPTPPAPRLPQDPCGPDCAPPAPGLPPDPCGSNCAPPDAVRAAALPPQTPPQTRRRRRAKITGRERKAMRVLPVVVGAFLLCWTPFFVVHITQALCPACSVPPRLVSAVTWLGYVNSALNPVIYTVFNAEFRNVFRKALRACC
Text: (§1) A cell line expressing human dopamine D2 (Long form) receptors was purchased from Oregon Health Sciences University, Portland, Oreg. The D2 receptor cDNA was subcloned into an expression vector, pRc/CMV. The plasmids were transfected by electroporation into CHO K1 cells. A single stable transfectant, resistant to the antibiotic G418, was isolated and selected for use in the binding studies. For D4 binding, CHO K1 cells stably transfected to express the human recombinant dopamine D4.2 receptor subtype, as described by Shih, et al., "The expression and functional characterization of human dopamine D4.2 receptor in CHO K1 cells," Soc. Neurosci., 21(Part 1):621 (1995).
(§2) CHO K1 cells expressing either human D2 and D4.2 receptors were grown in 162 cm^2 culture flasks in F12 medium (Gibco Laboratories, Grand Island, N.Y.) supplemented with 10% fetal bovine serum (FBS, Hyclone, Logan, Utah) in an atmosphere of 5% CO2 /95% air at 37° C. Cells were grown until confluent, after which growth medium was removed and replaced with 0.02% ethylene diamine tetracetate (EDTA) in a phosphate-buffered saline solution (Sigma Chemical Co., St. Louis, Mo.) and scraped from the flasks. The cells were centrifuged at about 1000×g for 10 minutes at 40° C. and then resuspended in TEM buffer (25 mM Tris-HCL, pH 7.4, 5 mM EDTA, and 6 mM MgCl2) for D2 or the D4.2 buffer (50 mM Tris-HCl, pH 7.4, 5 mM EDTA, 1.5 mM CaCl2, 5 mM KCl, and 120 mM NaCl) and homogenized. The membranes were pelleted by centrifugation at 20,000×g at 40° C. for 20 minutes. Then the pellets were resuspended in appropriate buffer at 1 mL/flask and stored at -70° C. until used in the receptor binding assay.
(§3) After 60 minutes incubation at 25° C., the incubations were terminated by rapid filtration through Whatmann GF/B glass fibre filters (soaked for 1 hour in 0.5% polyethylenimine) on a -cell harvester, with three washes of 1 mL ice-cold buffer. Individual filter disks containing the bound ligand were placed in counting vials with 4 mL of scintillation fluid (Ready Gel, Beckman Instrument Inc., Fullerton, Calif.) and then counted in a Beckman LS-6800 liquid scintillation counter at an efficiency of 45%. Nonspecific binding was defined in presence of 1 mM of haloperidol.
(§4) Saturation and competition binding data were analyzed using an iterative nonlinear least-square curve-fitting Ligand program. In competition experiments, apparent Ki values were calculated from IC50 values by method of Cheng and Prusoff, "Relationship between the inhibition constant (Ki) and the concentration of inhibitor which causes 50% inhibition (IC50) of an enzymatic reaction," Biochem. Pharmacol., 22:3099-3108 (1973). Experimental compounds were made up as stock solutions in dimethyl sulfoxide (DMSO). […] Each observation was carried out in triplicate. To allow these calculations, Kd values were measured for the interaction of various ligands with the receptor. […]

[2] = molecular target: human dopamine D2 (Long form) receptors (Homo sapiens, UniProt P14416); test: biochemical; assay type: binding; conditions: 0.2 nM [3H]spiperone, CHO K1 membranes, 60 min, 25° C.; apparent Ki from IC50 (Cheng-Prusoff)
Text: as §1, §2, §3, §4

[3] = 0.2 nM [3H]spiperone, CHO K1 membranes, 60 min, 25° C., apparent Ki from IC50 (Cheng-Prusoff), read-out: D4 Ki

Sequence of human dopamine D2 (Long form) receptors (P14416 whole entry): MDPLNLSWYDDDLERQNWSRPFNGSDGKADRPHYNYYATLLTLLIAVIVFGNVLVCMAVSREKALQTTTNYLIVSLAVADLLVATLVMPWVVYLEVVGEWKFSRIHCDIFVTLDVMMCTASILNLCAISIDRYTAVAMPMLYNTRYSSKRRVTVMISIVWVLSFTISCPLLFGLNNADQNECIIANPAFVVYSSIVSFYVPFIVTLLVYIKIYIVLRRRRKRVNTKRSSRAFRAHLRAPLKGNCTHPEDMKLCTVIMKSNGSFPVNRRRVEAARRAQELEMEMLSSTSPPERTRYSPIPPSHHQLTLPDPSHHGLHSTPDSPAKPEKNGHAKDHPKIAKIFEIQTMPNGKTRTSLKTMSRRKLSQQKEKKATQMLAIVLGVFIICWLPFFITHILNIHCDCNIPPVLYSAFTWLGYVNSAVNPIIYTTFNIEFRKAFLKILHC

| SMILES | Ki [1, 3] [nM] | Ki [2] [nM] | Ki [1] [nM] |
| --- | --- | --- | --- |
| Brc1cccc(N2CCN(Cc3ccc4ccccc4n3)CC2)c1 [2-[4-(3-Bromo-phenyl)-piperazin-1-ylmethyl]-quinoline] | 46 |  |  |
| Cc1ccc(N2CCN(Cc3ccc4ccccc4n3)CC2)cc1 [2-(4-p-Tolyl-piperazin-1-ylmethyl)-quinoline] | 1.55 | 2850 |  |
| COCc1ccc(N2CCN(Cc3ccc4ccccc4n3)CC2)cc1Cl [2-[4-(3-Chloro-4-methoxymethyl-phenyl)-piperazin-1-ylmethyl]-quinoline] | 31.5 | > 5880 |  |
| Clc1ccc(N2CCN(Cc3ccc4ccccc4n3)CC2)cc1Cl [2-[4-(3,4-Dichloro-phenyl)-piperazin-1-ylmethyl]-quinoline] | 61 | > 5880 |  |
| N#Cc1ccc(N2CCN(Cc3ccc4ccccc4n3)CC2)cc1Cl [2-chloro-4-(4-quinolin-2-ylmethyl-piperazin-1-yl)-benzonitrile] |  |  | 101 |
| Cc1cccc(N2CCN(Cc3ccc4ccccc4n3)CC2)c1 [2-(4-m-Tolyl-piperazin-1-ylmethyl)-quinoline] | 127 |  |  |
| Cc1ccc(N2CCN(Cc3ccc4ccccc4n3)CC2)cc1Cl [2-[4-(3-Chloro-4-methyl-phenyl)-piperazin-1-ylmethyl]-quinoline] | 36 | > 5880 |  |
| Clc1cccc(N2CCN(Cc3ccc4ccccc4n3)CC2)c1 [2-[4-(3-Chloro-phenyl)-piperazin-1-ylmethyl]-quinoline] | 2.72 | > 5880 |  |
| Cc1ccc(N2CCN(Cc3ccc4ccccc4n3)CC2)cc1C [2-[4-(3,4-Dimethyl-phenyl)-piperazin-1-ylmethyl]-quinoline] | 13 | > 5880 |  |
| O=Cc1ccc(N2CCN(Cc3ccc4ccccc4n3)CC2)cc1Cl [2-Chloro-4-(4-quinolin-2-ylmethyl-piperazin-1-yl)-benzaldehyde] | 87 |  |  |
| Fc1ccc(C2=CCN(Cc3ccc4ccccc4n3)CC2)cc1 [2-[4-(4-Fluoro-phenyl)-3,6-dihydro-2H-pyridin-1-ylmethyl]-quinoline] |  | 254 | 14.4 |
| Clc1cc(Cl)cc(N2CCN(Cc3ccc4ccccc4n3)CC2)c1 [2-[4-(3,5-Dichloro-phenyl)-piperazin-1-ylmethyl]-quinoline] | 121 |  |  |
| Clc1cccc(N2CCN(Cc3ccc4ccccc4n3)CC2)c1Cl [2-[4-(2,3-Dichloro-phenyl)-piperazin-1-ylmethyl]-quinoline] | 59.5 |  |  |
| CCCc1cccc(N2CCN(Cc3ccc4ccccc4n3)CC2)c1 [2-[4-(3-Propyl-phenyl)-piperazin-1-ylmethyl]-quinoline] | 57 | 5810 |  |
| FC(F)(F)c1cc(N2CCN(Cc3ccc4ccccc4n3)CC2)ccc1Cl [2-[4-(4-Chloro-3-trifluoromethyl-phenyl)-piperazin-1-ylmethyl]-quinoline] | 122 |  |  |

The next lines start with results.

| Ki [1, 3] [nM] | Ki [2] [nM] | SMILES | Ki [1] [nM] |
| --- | --- | --- | --- |
| 13.5 | > 5880 | OCc1ccc(N2CCN(Cc3cnc4ccccc4c3)CC2)cc1Br [[2-Bromo-4-(4-quinolin-3-ylmethyl-piperazin-1-yl)-phenyl]-methanol] |  |
| 101 |  | COc1ccc(N2CCN(Cc3ccc4ccccc4n3)CC2)cc1 [2-[4-(4-Methoxy-phenyl)-piperazin-1-ylmethyl]-quinoline] |  |
| 8.27 | > 10000 | OCc1ccc(N2CCN(Cc3ccc4ccccc4n3)CC2)cc1Cl [[2-Chloro-4-(4-quinolin-2-ylmethyl-piperazin-1-yl)-phenyl]-methanol] |  |
| 29 | 512 | Fc1ccccc1N1CCN(Cc2cnc3ccccc3c2)CC1 [3-[4-(2-Fluoro-phenyl)-piperazin-1-ylmethyl]-quinoline] |  |
| 16 | 1790 | c1ccc(N2CCN(Cc3cnc4ccccc4c3)CC2)cc1 [3-(4-Phenyl-piperazin-1-ylmethyl)-quinoline] |  |
| 26 | 1380 | c1ccc(N2CCN(Cc3ccc4ncccc4c3)CC2)cc1 [6-(4-Phenyl-piperazin-1-ylmethyl)-quinoline] |  |
| 21 | 2160 | Cc1ccc(N2CCN(Cc3cnc4ccccc4c3)CC2)cc1 [3-(4-p-Tolyl-piperazin-1-ylmethyl)-quinoline] |  |
| 87 |  | OCc1ccc(N2CCN(Cc3ccc4ccccc4n3)CC2)cc1F [[2-Fluoro-4-(4-quinolin-2-ylmethyl-piperazin-1-yl)-phenyl]-methanol] |  |
| 36 | > 5880 | OCc1ccc(N2CCN(Cc3ccc4ccccc4n3)CC2)cc1Br [[2-Bromo-4-(4-quinolin-2-ylmethyl-piperazin-1-yl)-phenyl]-methanol] |  |
| 8.8 | > 5880 | OCc1ccc(N2CCN(Cc3cnc4ccccc4c3)CC2)cc1F [[2-Fluoro-4-(4-quinolin-3-ylmethyl-piperazin-1-yl)-phenyl]-methanol] |  |
| 139 | > 5880 | OCc1ccc(N2CCN(Cc3ccc4ccccc4n3)CC2)cc1 [[4-(4-Quinolin-2-ylmethyl-piperazin-1-yl)-phenyl]-methanol] |  |
